# From patent US20160002665A1, “[…] MALE STERILITY IN COMPOSITAE” (priority 2013, published 2016)
# What was measured:
# [1] = test system: mutant lettuce plant (Lactuca sativa), having a mutated version of the OPR3 gene; assay: Reversal of male sterility by spraying young flower buds of homozygous OPR3 mutant lettuce; type: in vivo; settings: for restoration of male fertility in F2 generation: F2 of cross NCIMB 42060 x wild-type lettuce, treatment as described in Example 1; for seed production through selfing: inflorescences sprayed with 200 μM solution, compared with mock-treated control plants (FIG. 1)
# From the text: A mutant lettuce plant (Lactuca sativa), having a mutated version of the OPR3 gene, was obtained by means of chemical mutagenesis and subsequent TILLING screening of about 3,000 M2 plants.
# Phenotypically this mutant lettuce plant was indistinguishable from wild-type lettuce plants, when the mutation was present in a heterozygous state. […] The few pollen grains that developed in such homozygous mutants were not functional.
# From the early bolting stage the inflorescences were sprayed 5 times per week, for a total of 3 weeks.
# [2] = test system: mutant endive plant (Cichorium endivia), having a mutated version of the OPR3 gene; assay: Reversal of male sterility and pale flower color by treating young flower buds of homozygous OPR3 mutant endive; type: in vivo; settings: for restoration of male fertility in F2 generation: F2 of cross of endive of the invention x wild-type endive, treatment as described in Example 3; for overcoming male sterility caused by the opr3 mutation: homozygous mutant endive, application to flower buds; for flower color of flowers developed from treated flower buds / male fertility (pollen function and seed set through self-pollination): homozygous mutants, daily spraying with 200 μM (0.2 mM) aqueous solution with 0.025% Zipper surfactant; for flower color of flowers developed from treated flower buds: about 3.5 months, untreated or mock-treated flowers pale (FIG. 2); for male fertility (pollen function and seed set through self-pollination): controls remained male-sterile
# From the text: A mutant endive plant (Cichorium endivia), having a mutated version of the OPR3 gene, was obtained by means of chemical mutagenesis and subsequent TILLING screening of about 10,000 M2 plants.
# Phenotypically this mutant endive plant was indistinguishable from wild-type endive plants, when the mutation was present in a heterozygous state. […] The pollen grains that developed in such homozygous mutants were unable to germinate and therefore dysfunctional.
# Blue was the wild-type flower color in this endive background.
# [3] = test system: Arabidopsis thaliana with mutations in the OPR3 gene; settings: treating flower buds; cited from earlier work
smiles,measurement,setting,value
"CC/C=C\C[C@H]1C(=O)CC[C@@H]1CC(=O)O [jasmonic acid, (3R,7S)-jasmonic acid]",restoration of male fertility in F2 generation,[1],sufficient to restore male fertility
same,restoration of male fertility in F2 generation,[2],sufficient to restore male fertility
same,overcoming male sterility caused by the opr3 mutation,[2],had the same effect
CC/C=C\CC1C(=O)CCC1CC(=O)OC (stereo not drawn) [methyl jasmonate],restoration of male fertility in F2 generation,[1],sufficient to restore male fertility
same,seed production through selfing,[1]; homozygous mutants,has produced seeds through selfing
same,seed production through selfing,"[1]; homozygous mutants, listed as MeJA",produced seeds in a subset of their flowers
same,restoration of male fertility,"[1]; homozygous mutants, young flower buds sprayed with 200 μM (0.2 mM) aqueous solution plus 0.025% Zipper surfactant, 5 times per week for 3 weeks",sufficient to restore male fertility
same,restoration of male fertility in F2 generation,[2],sufficient to restore male fertility
same,overcoming male sterility caused by the opr3 mutation,[2],could be overcome
same,flower color of flowers developed from treated flower buds,[2],changed to blue
same,flower color of flowers developed from treated flower buds,[2]; listed as MeJA,developed into blue flowers
same,male fertility (pollen function and seed set through self-pollination),[2],has become male-fertile
same,male fertility (pollen function and seed set through self-pollination),[2]; listed as MeJA,"produced viable, functional pollen and were able to set seed through self-pollination"
same,effect of other application methods than spraying,[2]; solution painted onto the surface of young flower buds with a fine brush,comparable effects
same,restoration of male fertility,[3],Male fertility could be restored
